Our source for the IC50 values is paper PMC12147034, “Identification of alkynyl nicotinamide HSN748 as a RET solvent-front mutant inhibitor with intracranial efficacy” (RSC Medicinal Chemistry, 2025).

Structures are written as SMILES. Where a chain is given by its changes, count along the chain named.

What all share (format): cell-based
Experiment [1] has as its target T1, BaF3/KIF5B-RET (B/KR) cells, RET WT (Homo sapiens, UniProt P07949+P33176).
T1 construct: FLAG; expressed in transfected cells; host or cells: BaF3
T1 sequence (P33176+P07949 with tags, fused parts or gaps): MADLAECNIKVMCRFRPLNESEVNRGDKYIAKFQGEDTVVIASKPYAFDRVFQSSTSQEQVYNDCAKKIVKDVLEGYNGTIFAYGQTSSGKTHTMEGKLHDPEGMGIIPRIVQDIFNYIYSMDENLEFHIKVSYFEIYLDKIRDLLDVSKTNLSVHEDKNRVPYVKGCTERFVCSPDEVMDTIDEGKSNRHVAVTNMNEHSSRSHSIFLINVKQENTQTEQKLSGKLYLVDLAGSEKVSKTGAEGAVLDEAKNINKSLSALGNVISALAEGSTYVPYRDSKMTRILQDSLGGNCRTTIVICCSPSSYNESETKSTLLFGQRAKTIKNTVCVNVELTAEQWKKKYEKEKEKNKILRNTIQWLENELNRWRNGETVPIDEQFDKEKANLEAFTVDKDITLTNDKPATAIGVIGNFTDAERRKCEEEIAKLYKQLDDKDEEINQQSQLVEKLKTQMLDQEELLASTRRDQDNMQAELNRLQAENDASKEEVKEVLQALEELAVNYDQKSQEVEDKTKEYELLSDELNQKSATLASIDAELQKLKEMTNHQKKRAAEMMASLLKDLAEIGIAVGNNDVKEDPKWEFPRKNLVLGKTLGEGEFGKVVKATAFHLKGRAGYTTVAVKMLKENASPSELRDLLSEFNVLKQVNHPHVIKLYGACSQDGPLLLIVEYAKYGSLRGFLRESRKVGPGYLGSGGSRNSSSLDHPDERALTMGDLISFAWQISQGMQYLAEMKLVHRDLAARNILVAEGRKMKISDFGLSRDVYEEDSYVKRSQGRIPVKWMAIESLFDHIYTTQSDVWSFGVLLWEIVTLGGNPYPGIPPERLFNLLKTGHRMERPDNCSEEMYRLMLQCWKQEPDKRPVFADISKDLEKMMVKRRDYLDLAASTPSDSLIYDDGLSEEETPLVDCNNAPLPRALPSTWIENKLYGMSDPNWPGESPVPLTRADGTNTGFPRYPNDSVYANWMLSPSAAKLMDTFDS
In words: Cell viability assay (CellTiter-Glo, 3 days) in B/KR cells. Here is the method: (§1) BaF3 cell lines expressing a flag-tagged KIF5B-RET (B/KR) and the KIF5B-RET containing G810C, G810R, G810S, V804M, V804L mutations were as reported.[8,13,17,21–23] […] Infected cells were cultured for two weeks, and cells with high GFP intensity were sorted into a 96-well plate (1 cell/well). After the expansion of growing cell lines, they were screened for a high level of luciferase activity by luminescence imaging after exposure to D-luciferin. IMR-90 cells were from ATCC.
(§2) The TEL-VEGFR2 cDNA was then subcloned into pLentP lentiviral vector.[21] and BaF3/TEL-VEGFR2 (B/TV) cells were generated by infecting BaF3 cells with the lentiviral TEL-VEGFR2 as described. Cell viability assay was performed using CellTiter-Glo reagent (G7573, Promega, Madison, WI, USA) after 3 days of drug treatment as described for BaF3-derived cells and 5 days for IMR-90 cells.
On the technique in general: Cellular ATP, detected with luciferase, serves as a proxy for viable cell number.

Experiment [2] deals with T2, B/KR(G810R) cells, KIF5B-RET G810R (Homo sapiens, UniProt P07949+P33176, G810R).
T2 construct: FLAG; expressed in transfected cells; host or cells: BaF3
T2 sequence (P07949 713-1063 G810R limits assumed): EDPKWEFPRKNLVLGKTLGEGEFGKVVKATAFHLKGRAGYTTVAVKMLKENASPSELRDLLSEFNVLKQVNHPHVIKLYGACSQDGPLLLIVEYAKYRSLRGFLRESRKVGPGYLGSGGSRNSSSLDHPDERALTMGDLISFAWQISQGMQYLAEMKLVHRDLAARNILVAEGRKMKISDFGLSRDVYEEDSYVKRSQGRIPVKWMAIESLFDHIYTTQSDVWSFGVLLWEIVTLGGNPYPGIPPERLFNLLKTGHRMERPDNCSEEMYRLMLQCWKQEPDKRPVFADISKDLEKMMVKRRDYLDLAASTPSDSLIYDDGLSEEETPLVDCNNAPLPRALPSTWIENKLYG
In words: Cell viability assay (CellTiter-Glo, 3 days) in B/KR(G810R) cells. Here is the method: as §1, §2

For experiment [3], the target named is T3, B/KR(G810C) cells, KIF5B-RET G810C (Homo sapiens, UniProt P07949+P33176, G810C).
T3 construct: FLAG; expressed in transfected cells; host or cells: BaF3
T3 sequence (P07949 713-1063 G810C limits assumed): T2 sequence (P07949 713-1063 G810R limits assumed) with R98C
The experiment is described as follows: Cell viability assay (CellTiter-Glo, 3 days) in B/KR(G810C) cells. How it is done: as §1, §2

Experiment [4] concerns the target T4, B/KR(G810S) cells, KIF5B-RET G810S (Homo sapiens, UniProt P07949+P33176, G810S).
T4 construct: FLAG; expressed in transfected cells; host or cells: BaF3
T4 sequence (P07949 713-1063 G810S limits assumed): T2 sequence (P07949 713-1063 G810R limits assumed) with R98S
In words: Cell viability assay (CellTiter-Glo, 3 days) in B/KR(G810S) cells. Here is the method: as §1, §2

For the compound `CN1CCN(Cc2ccc(NC(=O)c3cncc(C#Cc4cnc5cccnn45)c3)cc2C(F)(F)F)CC1` [HSN748], the IC50 in experiment [1] stood at 4.05 ± 0.18 nM; in experiment [2], 20.6 ± 1.42 nM; in experiment [3] it was 7.93 ± 0.33 nM; in experiment [4], 13.9 ± 0.32 nM.
For `CCOc1ccc2ncc(C#Cc3cncc(C(=O)Nc4ccc(CN5CCN(C)CC5)c(C(F)(F)F)c4)c3)n2n1` [HSND14, 5-((6-Ethoxyimidazo[1,2-b]pyridazin-3-yl)ethynyl)-N-(4-((4-methylpiperazin-1-yl)methyl)-3-(trifluoromethyl)phenyl)nicotinamide], in that order: 4.02 ± 0.19 nM, 33 ± 0.67 nM, 15.9 ± 0.72 nM and 5.21 ± 0.15 nM.
For `Cc1n[nH]c2ncc(C#Cc3cncc(C(=O)Nc4ccc(CN5CCN(C)CC5)c(C(F)(F)F)c4)c3)cc12` [HSND19, 5-((3-Methyl-1H-pyrazolo[3,4-b]pyridin-5-yl)ethynyl)-N-(4-((4-methylpiperazin-1-yl)methyl)-3-(trifluoromethyl)phenyl)nicotinamide] the same measures were 1.95 ± 0.12 nM, 23.1 ± 1.39 nM, 9.08 ± 1.63 nM and 4 ± 0.16 nM.

For orientation: IC50 means the concentration needed to halve the response being measured.
